# Laboratory results published in paper PMC7504088, ““Clicking” an Ionic Liquid to a Potent Antimicrobial Peptide: On the Route towards Improved Stability” (International Journal of Molecular Sciences, 2020).
# Marks after values point to notes of the source that are not given here. Ends that are not written are not given here. Peptide text beside a SMILES is read from it. * marks the point of attachment. X1 = C[n+]1ccn(Cc2cn(CC(=O)*)nn2)c1
# Legend:
# [1] = tested on: K. pneumoniae KP004 (MDR clinical isolate); format: cell-based, Klebsiella pneumoniae
# Protocol: (§1) Both the conjugate MeIm-3.1-PP4 and its parent peptide 3.1-PP4 were next screened for their antibacterial activity. Minimum inhibitory concentration (MIC) values were determined following the Clinical and Laboratory Standards Institute (CLSI) protocol, against Gram-positive (Staphylococcus aureus and Enterococcus faecalis), and Gram-negative (Pseudomonas aeruginosa, Escherichia coli and Klebsiella pneumoniae) bacteria, including both reference strains (American Type Culture Collection, ATCC), and multidrug-resistant (MDR) clinical isolates. […] Relevantly, in most cases, MIC values matched the minimum bactericidal concentration (MBC) values, highlighting a bactericidal action for both MeIm-3.1-PP4 and its parent peptide.
# (§2) The MIC of the test compounds was determined according to the CLSI guidelines. Briefly, the compounds were tested in the 1–1024 µg/mL concentration range, using the microdilution method in cation-adjusted Mueller-Hinton broth (MHB II) against reference strains of P. aeruginosa ATCC 27853, E. coli ATCC 25922, S. aureus ATCC 25923, and Enterococcus faecalis ATCC 29212. MIC values were also determined against MDR clinical isolates (antibiotic resistance patterns given in Supplementary Materials, Table S1) of P. aeruginosa (PA004, Pa3, Pa4), E. coli (Ec2, EC001, EC002, EC003), K. pneumoniae (KP004, KP010), S. aureus (SA007), and Enterococcus faecalis (Ef1). Along with the MIC values, MBC values were also determined as previously reported.
# [2] = tested on: K. pneumoniae KP010 (MDR clinical isolate); format: cell-based, Klebsiella pneumoniae
# Protocol: as §1, §2
# [3] = tested on: P. aeruginosa PA004 (MDR clinical isolate); format: cell-based, Pseudomonas aeruginosa
# Protocol: as §1, §2
# [4] = tested on: P. aeruginosa ATCC 27853; format: cell-based, Pseudomonas aeruginosa
# Protocol: as §1, §2
# [5] = tested on: P. aeruginosa Pa3 (MDR clinical isolate); format: cell-based, Pseudomonas aeruginosa
# Protocol: as §1, §2
# [6] = tested on: P. aeruginosa Pa4 (MDR clinical isolate); format: cell-based, Pseudomonas aeruginosa
# Protocol: as §1, §2
# [7] = tested on: S. aureus ATCC 25923; format: cell-based, Staphylococcus aureus
# Protocol: as §1, §2
# [8] = tested on: S. aureus SA007 (MDR clinical isolate); format: cell-based, Staphylococcus aureus
# Protocol: as §1, §2
# [9] = tested on: Enterococcus faecalis Ef1 (MDR clinical isolate); format: cell-based
# Protocol: as §1, §2
# [10] = tested on: Enterococcus faecalis ATCC 29212; format: cell-based
# Protocol: as §1, §2
# [11] = tested on: HaCaT human epidermal keratinocytes; format: cell-based; conditions: 24 h
# Protocol: (§3) Since this type of IL-AMP conjugate is being developed for its potential interest to address infected skin lesions, a preliminary assessment of the toxicity of both the conjugate and the parent peptide towards HaCaT human epidermal keratinocytes was carried out by the 3-(4,5-dimethylthiazol-2-yl)-2,5-diphenyltetrazolium bromide (MTT) assay, as previously described by us. […] This activity was assessed in two different ways: (i) inhibition of biofilm formation, and (ii) effect on a preformed biofilm. For evaluation of the inhibition of biofilm formation, both conjugate and parent peptide were tested at MIC and sub-inhibitory concentrations (½×MIC and at ¼×MIC) following previously established procedures, and the mass of biofilm formed at these concentrations was assessed through the crystal violet assay. […] Relevantly, the absorbance measured for the control (absence of test compounds) provides confirmation that the bacterial strain used is a good biofilm producer.
# The cytotoxicity of peptides to HaCat cells was evaluated using the standard MTT assay. Briefly, cells were seeded at a density of 4 × 10^4 cells/mL, respectively, in 96-well plates and incubated at 37 °C in a 5% CO2 atmosphere. […] Absorbance was read at 570 nm in FlexStation®3 Multi-Mode Microplate Reader (Molecular Devices, San Jose, CA, USA).
# [12] = tested on: E. coli EC003 (MDR clinical isolate); format: cell-based, Escherichia coli
# Protocol: as §1, §2
# [13] = tested on: E. coli ATCC 25922; format: cell-based, Escherichia coli
# Protocol: as §1, §2
# [14] = tested on: E. coli Ec2 (MDR clinical isolate); format: cell-based, Escherichia coli
# Protocol: as §1, §2
# [15] = tested on: E. coli EC001 (MDR clinical isolate); format: cell-based, Escherichia coli
# Protocol: as §1, §2
# [16] = tested on: E. coli EC002 (MDR clinical isolate); format: cell-based, Escherichia coli
# Protocol: as §1, §2
# [17] = tested on: K. pneumoniae KP010 biofilms; test: Inhibition of biofilm formation, crystal violet assay; format: cell-based, Klebsiella pneumoniae; conditions: KP010, TSB, crystal violet absorbance at 595 nm, three independent experiments in triplicate
# Protocol: as §3
# The ability of the test compounds to inhibit the biofilm formation by KP010 (a MDR clinical isolate of K. pneumoniae) was assessed at the respective MIC, ^1/2×MIC and ^1/4×MIC values in tryptic soy broth (TSB) using the crystal violet assay as previously reported. […]
# Figure 1 Effects of 3.1-PP4 and MeIm-3.1-PP4 on formation of K. pneumoniae KP010 biofilms (biomass quantification by crystal violet absorbance at 595 nm). […]
# [18] = tested on: tyrosinase; test: in vitro; format: in vitro ADME; conditions: mushroom (Agaricus bisporus), isolated enzyme, pH 6.8
# Source text: One of our main motivations to explore IL-peptide conjugates concerns improving the enzymatic stability of the peptide moiety, as poor pharmacokinetics is a major obstacle towards clinical translation of AMP and other bioactive peptides, even when topical applications are envisaged. For instance, in a non-healing infected wound, peptides are vulnerable to modification by endogenous (e.g., tyrosinase, elastase, metalloproteinases) and exogenous (produced by colonizing microbes) enzymes in the wound site. […] The samples were collected at different time points, for 24 h, and were analyzed by HPLC. […]
# The IL-peptide conjugate and the parent peptide were both incubated at a final concentration of 10 mM in phosphate buffer (pH 6.8), with the enzyme tyrosinase (CAS:9002-10-2; T3824-250KU) at 18 U/mL, for 24 h at 37 °C. […] The supernatant was then analyzed by HPLC, using a Hitachi-Merck LaChrom Elite system with a reverse-phase C18 column (125 × […] and 5 µm pore size). […]
# Results from peptide stability were expressed as the variation of the % of starting compound over time (mean ± SD). Data were analyzed in GraphPad Prism 8.0.1 Software using two-way analysis of variance (ANOVA) followed by Tukey’s multiple comparison test. […]
# [19] = tested on: preformed biofilms of KP010 (MDR clinical isolate of K. pneumoniae); test: Effect on preformed biofilms, OD600 of planktonic phase; format: cell-based, Klebsiella pneumoniae; conditions: 20×MIC, 24 h at 37 °C, untreated biofilms 0.740 ± 0.047, mean ± SD of three independent experiments in triplicate
# Protocol: Biofilm proliferation was determined by measuring the optical density (OD) of the planktonic phase of the biofilms, both treated with the test compounds and the untreated control. […] This improvement, afforded by the insertion of the imidazolium motif, is in line with previous reports of enhanced antibacterial activity when combining imidazolium ILs with non-peptide antibiotics, like ampicillin, including against resistant bacterial strains.
# To assess the effects of test compounds on 48 h preformed biofilms of KP010, the biofilms were first grown in TSB from a starting inoculum of 1 × 10^6 CFU/mL in 96-well microtiter plates. After 48 h of incubation at 37 °C, the planktonic cells were removed, and the wells were rinsed and filled with the test compound at a 20× MIC concentration. The optical density at 600 nm was measured at time 0 and after incubation for 24 h at 37 °C. The reduction in the biofilm proliferation was calculated in comparison to the respective non-treated biofilms. Three independent experiments were performed in triplicate.
molecule,measurement,setting,value
KKLLKWLLKLLKTTKS-NH2 [3.1-PP4],MIC,[1],2.3 (1.2) μg/mL
same,MIC,[2],2.3 (1.2) μg/mL
same,MIC,[3],1.3 (0.7) μg/mL
same,MIC,[4],2.3 (1.2) μg/mL
same,MIC,[5],1.3 (0.7) μg/mL
same,MIC,[6],1.3 (0.7) μg/mL
same,MIC,[7],10.3 (5.3) ^a μg/mL
same,MIC,[8],10.3 (5.3) μg/mL
same,MIC,[9],2.3 (1.2) ^a μg/mL
same,MIC,[10],41.3 (21.3) μg/mL
same,IC50,[11],34.2 ± 0.5 µM
same,MIC,[12],0.6 (0.3) μg/mL
same,MIC,[13],1.3 (0.7) μg/mL
same,MIC,[14],1.3 (0.7) μg/mL
same,MIC,[15],1.3 (0.7) μg/mL
same,MIC,[16],1.3 (0.7) μg/mL
CC(C)C[C@H](NC(=O)[C@H](CCCCN)NC(=O)[C@H](CCCCN)NC(=O)Cn1cc(Cn2cc[n+](C)c2)nn1)C(=O)N[C@@H](CC(C)C)C(=O)N[C@@H](CCCCN)C(=O)N[C@@H](Cc1c[nH]c2ccccc12)C(=O)N[C@@H](CC(C)C)C(=O)N[C@@H](CC(C)C)C(=O)N[C@@H](CCCCN)C(=O)N[C@@H](CC(C)C)C(=O)N[C@@H](CC(C)C)C(=O)N[C@@H](CCCCN)C(=O)N[C@H](C(=O)N[C@H](C(=O)N[C@@H](CCCCN)C(=O)N[C@@H](CO)C(N)=O)[C@@H](C)O)[C@@H](C)O [MeIm-3.1-PP4] (X1-KKLLKWLLKLLKTTKS-NH2),MIC,[1],49.6 (23.1) μg/mL
same,MIC,[2],6.2 (2.9) μg/mL
same,MIC,[3],3.1 (1.4) μg/mL
same,MIC,[4],1.5 (0.7) μg/mL
same,MIC,[5],1.5 (0.7) μg/mL
same,MIC,[6],0.8 (0.4) μg/mL
same,biofilm formed at MIC,[17]; at MIC,only a little amount of biofilm was formed
same,biofilm biomass formed at sub-inhibitory concentrations,[17]; at ½×MIC and ¼×MIC,lower than the control
same,MIC,[7],24.8 (11.6) ^a μg/mL
same,MIC,[8],12.4 (5.8) μg/mL
same,"remaining at 24 h, 10 mM",[18],~84%
same,MIC,[9],3.1 (1.4) μg/mL
same,MIC,[10],99.3 (46.3) μg/mL
same,OD600 of planktonic phase of peptide-treated biofilms,[19],0.497± 0.050
same,IC50,[11],19.4 ± 0.2 µM
same,MIC,[12],1.5 (0.7) μg/mL
same,MIC,[13],0.8 (0.4) μg/mL
same,MIC,[14],1.5 (0.7) μg/mL
same,MIC,[15],3.1 (1.4) μg/mL
same,MIC,[16],1.5 (0.7) μg/mL
